# Assay results published in PMC6925188, “PBRM1 acts as a p53 lysine-acetylation reader to suppress renal tumor growth” (Nature Communications, 2019).
# Marks after values point to notes of the source that are not given here.
# Columns and labels:
# ACHN cells = test: Cell cycle analysis, ACHN shRNA knockdown cells; assay type: cell-based; parameters: Sub-G1: unit not given here; details: 50 μM
# Description: Lysates were analyzed via immunoblots. f, g, h. ACHN control, p53 and p21 shRNA knockdown cells were harvested for […]
# Representative data is shown i n g. […] Source data are provided as a Source
# p53 binding to CDKN1A = test: ChIP-qPCR, p53 antibody, CDKN1A gene, RCC4 cells; assay type: cell-based; parameters: p53 ChIP at CDKN1A-intron / p53 ChIP at CDKN1A-RE1 / p53 ChIP at CDKN1A-TSS: unit not given here; details: 24 h; for p53 ChIP at CDKN1A-RE1 / p53 ChIP at CDKN1A-TSS / p53 ChIP at CDKN1A-intron: 100 μM
# Description: Lysates were analyzed by immunoblots. c RCC4 cells with or without p53 KO were transfected with vector or Flag-PBRM1 at the indicated amounts. […] Cells were harvested for RT-qPCR (g) or ChIP followed by qPCR (h). […] Representative data is shown in i. Quantification of cell cycle phase is shown in j. Source data are provided as a Source Data file.
# ChIP assays were performed with the Pierce Agarose ChIP Kit (26156, Thermo Scientific) according to the manufacturer’s instructions with minor revisions. In brief, samples were crosslinked with 1% paraformaldehyde and halted by 125 mM glycine. After washing twice with ice-cold PBS, cells were harvested and suspended in Lysis Buffer 1 and incubated on ice for 10 min. 1 × 10^7 nuclei were resuspended in 500 μl MNase Digestion Buffer containing 6.25 U Micrococcal Nuclease and incubated at 37 °C for 15 min. After the reaction was stopped, nuclei were pelleted by centrifugation and resuspended in 250 μl Lysis Buffer 2. Nuclei were sonicated at 10% amplitude for 10 s twice and incubated on ice for 30 min. After centrifugation, 50 μl supernatant containing the digested chromatin from 2 × 10^6 nuclei was diluted in 1× IP Dilution Buffer and incubated with antibodies (normal rabbit IgG for control, 1 μg FL393 + 1 μg DO-1 for p53 or 2 μg Flag M2 for Flag-PBRM1) overnight at 4 °C. […] of ChIP Grade Protein A/G Plus Agarose was added and incubated for 1 h at 4 °C. The agarose resins were washed once with IP Wash Buffer 1, twice with IP Wash Buffer 2 and once with IP Wash Buffer 3. 150 μl 1× IP Elution Buffer was added to the washed resin and incubated at 65 °C for 30 min with shaking. The eluate was treated with Proteinase K and DNA was extracted with columns provided in the kit.
structure (smiles),measurement,setting,value
COc1cc([C@@H]2c3cc4c(cc3[C@@H](O[C@@H]3O[C@@H]5CO[C@@H](C)O[C@H]5[C@H](O)[C@H]3O)[C@H]3COC(=O)[C@H]23)OCO4)cc(OC)c1O [Etoposide],G0/G1,"ACHN cells; ACHN-sh-PBRM1#1, assay 1",10.9
same,G2/M,"ACHN cells; ACHN-sh-PBRM1#1, assay 1",66.9
same,S,"ACHN cells; ACHN-sh-PBRM1#1, assay 1",15.8
same,Sub-G1,"ACHN cells; ACHN-sh-PBRM1#1, assay 1",5.5
same,G0/G1,"ACHN cells; ACHN-sh-PBRM1#1, assay 2",15.3
same,G2/M,"ACHN cells; ACHN-sh-PBRM1#1, assay 2",36.8
same,S,"ACHN cells; ACHN-sh-PBRM1#1, assay 2",33.9
same,Sub-G1,"ACHN cells; ACHN-sh-PBRM1#1, assay 2",12.3
same,G0/G1,"ACHN cells; ACHN-sh-PBRM1#1, assay 3",16.9
same,G2/M,"ACHN cells; ACHN-sh-PBRM1#1, assay 3",39.4
same,S,"ACHN cells; ACHN-sh-PBRM1#1, assay 3",35.3
same,Sub-G1,"ACHN cells; ACHN-sh-PBRM1#1, assay 3",6.8
same,G0/G1,"ACHN cells; ACHN-sh-PBRM1#2, assay 1",50.7
same,G2/M,"ACHN cells; ACHN-sh-PBRM1#2, assay 1",29.4
same,S,"ACHN cells; ACHN-sh-PBRM1#2, assay 1",17.3
same,Sub-G1,"ACHN cells; ACHN-sh-PBRM1#2, assay 1",1.2
same,G0/G1,"ACHN cells; ACHN-sh-PBRM1#2, assay 2",45.9
same,G2/M,"ACHN cells; ACHN-sh-PBRM1#2, assay 2",20.7
same,S,"ACHN cells; ACHN-sh-PBRM1#2, assay 2",26.7
same,Sub-G1,"ACHN cells; ACHN-sh-PBRM1#2, assay 2",5
same,G0/G1,"ACHN cells; ACHN-sh-PBRM1#2, assay 3",48.7
same,G2/M,"ACHN cells; ACHN-sh-PBRM1#2, assay 3",22.6
same,S,"ACHN cells; ACHN-sh-PBRM1#2, assay 3",24.8
same,Sub-G1,"ACHN cells; ACHN-sh-PBRM1#2, assay 3",1.6
same,G0/G1,"ACHN cells; ACHN-sh-SCR, assay 1",54.8
same,G2/M,"ACHN cells; ACHN-sh-SCR, assay 1",26.5
same,S,"ACHN cells; ACHN-sh-SCR, assay 1",16.1
same,Sub-G1,"ACHN cells; ACHN-sh-SCR, assay 1",1.5
same,G0/G1,"ACHN cells; ACHN-sh-SCR, assay 2",51.3
same,G2/M,"ACHN cells; ACHN-sh-SCR, assay 2",21.3
same,S,"ACHN cells; ACHN-sh-SCR, assay 2",25.2
same,Sub-G1,"ACHN cells; ACHN-sh-SCR, assay 2",1.4
same,G0/G1,"ACHN cells; ACHN-sh-SCR, assay 3",43.6
same,G2/M,"ACHN cells; ACHN-sh-SCR, assay 3",27
same,S,"ACHN cells; ACHN-sh-SCR, assay 3",25.3
same,Sub-G1,"ACHN cells; ACHN-sh-SCR, assay 3",2.1
same,G0/G1,"ACHN cells; ACHN-sh-p21#1, assay 1",40.5
same,G2/M,"ACHN cells; ACHN-sh-p21#1, assay 1",38.3
same,S,"ACHN cells; ACHN-sh-p21#1, assay 1",18.7
same,Sub-G1,"ACHN cells; ACHN-sh-p21#1, assay 1",1.3
same,G0/G1,"ACHN cells; ACHN-sh-p21#1, assay 2",47.7
same,G2/M,"ACHN cells; ACHN-sh-p21#1, assay 2",23.1
same,S,"ACHN cells; ACHN-sh-p21#1, assay 2",27.2
same,Sub-G1,"ACHN cells; ACHN-sh-p21#1, assay 2",1
same,G0/G1,"ACHN cells; ACHN-sh-p21#1, assay 3",48.6
same,G2/M,"ACHN cells; ACHN-sh-p21#1, assay 3",22.6
same,S,"ACHN cells; ACHN-sh-p21#1, assay 3",26
same,Sub-G1,"ACHN cells; ACHN-sh-p21#1, assay 3",0.8
same,G0/G1,"ACHN cells; ACHN-sh-p21#2, assay 1",14.3
same,G2/M,"ACHN cells; ACHN-sh-p21#2, assay 1",65.7
same,S,"ACHN cells; ACHN-sh-p21#2, assay 1",15.1
same,Sub-G1,"ACHN cells; ACHN-sh-p21#2, assay 1",4
same,G0/G1,"ACHN cells; ACHN-sh-p21#2, assay 2",11.9
same,G2/M,"ACHN cells; ACHN-sh-p21#2, assay 2",48.4
same,S,"ACHN cells; ACHN-sh-p21#2, assay 2",31.1
same,Sub-G1,"ACHN cells; ACHN-sh-p21#2, assay 2",6.9
same,G0/G1,"ACHN cells; ACHN-sh-p21#2, assay 3",14.7
same,G2/M,"ACHN cells; ACHN-sh-p21#2, assay 3",42.4
same,S,"ACHN cells; ACHN-sh-p21#2, assay 3",35.8
same,Sub-G1,"ACHN cells; ACHN-sh-p21#2, assay 3",5.3
same,G0/G1,"ACHN cells; ACHN-sh-p53, assay 1",6.3
same,G2/M,"ACHN cells; ACHN-sh-p53, assay 1",68.3
same,S,"ACHN cells; ACHN-sh-p53, assay 1",16.5
same,Sub-G1,"ACHN cells; ACHN-sh-p53, assay 1",6.2
same,G0/G1,"ACHN cells; ACHN-sh-p53, assay 2",11.6
same,G2/M,"ACHN cells; ACHN-sh-p53, assay 2",30
same,S,"ACHN cells; ACHN-sh-p53, assay 2",34.2
same,Sub-G1,"ACHN cells; ACHN-sh-p53, assay 2",20.3
same,G0/G1,"ACHN cells; ACHN-sh-p53, assay 3",10.6
same,G2/M,"ACHN cells; ACHN-sh-p53, assay 3",39
same,S,"ACHN cells; ACHN-sh-p53, assay 3",34.6
same,Sub-G1,"ACHN cells; ACHN-sh-p53, assay 3",11.3
same,p53 binding to CDKN1A RE1 with PBRM1,"p53 binding to CDKN1A; 100 μM etoposide, RCC4",significantly enhanced by wild-type but not BD4* mutant PBRM1
same,p53 ChIP at CDKN1A-RE1,"p53 binding to CDKN1A; RCC4-GFP, assay 1",1.555
same,p53 ChIP at CDKN1A-TSS,"p53 binding to CDKN1A; RCC4-GFP, assay 1",0.1782
same,p53 ChIP at CDKN1A-intron,"p53 binding to CDKN1A; RCC4-GFP, assay 1",0.077
same,p53 ChIP at CDKN1A-RE1,"p53 binding to CDKN1A; RCC4-GFP, assay 2",1.8621
same,p53 ChIP at CDKN1A-TSS,"p53 binding to CDKN1A; RCC4-GFP, assay 2",0.1891
same,p53 ChIP at CDKN1A-intron,"p53 binding to CDKN1A; RCC4-GFP, assay 2",0.0504
same,p53 ChIP at CDKN1A-RE1,"p53 binding to CDKN1A; RCC4-GFP, assay 3",1.9888
same,p53 ChIP at CDKN1A-TSS,"p53 binding to CDKN1A; RCC4-GFP, assay 3",0.2677
same,p53 ChIP at CDKN1A-intron,"p53 binding to CDKN1A; RCC4-GFP, assay 3",0.06
same,p53 ChIP at CDKN1A-RE1,"p53 binding to CDKN1A; RCC4-PBRM1-BD4*, assay 1",1.5332
same,p53 ChIP at CDKN1A-TSS,"p53 binding to CDKN1A; RCC4-PBRM1-BD4*, assay 1",0.1764
same,p53 ChIP at CDKN1A-intron,"p53 binding to CDKN1A; RCC4-PBRM1-BD4*, assay 1",0.0801
same,p53 ChIP at CDKN1A-RE1,"p53 binding to CDKN1A; RCC4-PBRM1-BD4*, assay 2",1.7924
same,p53 ChIP at CDKN1A-TSS,"p53 binding to CDKN1A; RCC4-PBRM1-BD4*, assay 2",0.1865
same,p53 ChIP at CDKN1A-intron,"p53 binding to CDKN1A; RCC4-PBRM1-BD4*, assay 2",0.0517
same,p53 ChIP at CDKN1A-RE1,"p53 binding to CDKN1A; RCC4-PBRM1-BD4*, assay 3",1.8343
same,p53 ChIP at CDKN1A-TSS,"p53 binding to CDKN1A; RCC4-PBRM1-BD4*, assay 3",0.221
same,p53 ChIP at CDKN1A-intron,"p53 binding to CDKN1A; RCC4-PBRM1-BD4*, assay 3",0.0545
same,p53 ChIP at CDKN1A-RE1,"p53 binding to CDKN1A; RCC4-PBRM1, assay 1",1.8428
same,p53 ChIP at CDKN1A-TSS,"p53 binding to CDKN1A; RCC4-PBRM1, assay 1",0.2655
same,p53 ChIP at CDKN1A-intron,"p53 binding to CDKN1A; RCC4-PBRM1, assay 1",0.0601
same,p53 ChIP at CDKN1A-RE1,"p53 binding to CDKN1A; RCC4-PBRM1, assay 2",2.4571
same,p53 ChIP at CDKN1A-TSS,"p53 binding to CDKN1A; RCC4-PBRM1, assay 2",0.2336
same,p53 ChIP at CDKN1A-intron,"p53 binding to CDKN1A; RCC4-PBRM1, assay 2",0.0759
same,p53 ChIP at CDKN1A-RE1,"p53 binding to CDKN1A; RCC4-PBRM1, assay 3",2.4942
same,p53 ChIP at CDKN1A-TSS,"p53 binding to CDKN1A; RCC4-PBRM1, assay 3",0.2293
same,p53 ChIP at CDKN1A-intron,"p53 binding to CDKN1A; RCC4-PBRM1, assay 3",0.0609
